Laboratory results: ChEMBL document CHEMBL5465560, “Selectivity Literature for EUbOPEN Chemogenomic Library” (2024)

How the values were obtained:
[1] = biological target: Phosphatidylinositol 4-phosphate 5-kinase type-1 alpha (Homo sapiens) (UniProt Q99755); assay: Selectivity interaction (Ambit KINOMEscan and KiNATiv profiling in Jurkat cells) EUB0000090b PIP5K1A; type: cell-based; settings: at 1 µM
[2] = biological target: T1, Non-receptor tyrosine-protein kinase TNK1 (Homo sapiens) (UniProt Q13470); assay: Selectivity interaction (Ambit KINOMEscan and KiNATiv profiling in Jurkat cells) EUB0000090b TNK1; type: cell-based; settings: at 1 µM
T1 sequence (whole entry): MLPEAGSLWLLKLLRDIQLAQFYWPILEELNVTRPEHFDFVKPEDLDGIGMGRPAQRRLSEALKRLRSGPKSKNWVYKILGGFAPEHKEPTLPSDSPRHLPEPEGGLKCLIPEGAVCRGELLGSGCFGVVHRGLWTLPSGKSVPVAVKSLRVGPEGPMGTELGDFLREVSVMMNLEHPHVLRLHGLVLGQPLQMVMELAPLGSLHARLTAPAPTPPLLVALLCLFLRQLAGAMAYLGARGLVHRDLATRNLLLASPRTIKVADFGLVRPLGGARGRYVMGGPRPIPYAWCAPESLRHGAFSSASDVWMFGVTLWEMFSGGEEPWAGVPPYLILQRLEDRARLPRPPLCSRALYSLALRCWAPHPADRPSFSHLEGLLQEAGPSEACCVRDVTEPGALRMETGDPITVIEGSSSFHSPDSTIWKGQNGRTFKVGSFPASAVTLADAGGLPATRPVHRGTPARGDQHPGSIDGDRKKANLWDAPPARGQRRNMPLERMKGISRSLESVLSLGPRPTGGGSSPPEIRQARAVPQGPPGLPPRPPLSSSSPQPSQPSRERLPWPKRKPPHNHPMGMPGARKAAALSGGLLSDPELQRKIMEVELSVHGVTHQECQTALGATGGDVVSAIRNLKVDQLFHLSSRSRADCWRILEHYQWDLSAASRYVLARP

[3] = biological target: T2, Serine/threonine-protein kinase tousled-like 1 (Homo sapiens) (UniProt Q9UKI8); assay: Selectivity interaction (KinomeScan (DiscoverX)) EUB0000695a TLK1; settings: at 100 nM
T2 sequence (whole entry): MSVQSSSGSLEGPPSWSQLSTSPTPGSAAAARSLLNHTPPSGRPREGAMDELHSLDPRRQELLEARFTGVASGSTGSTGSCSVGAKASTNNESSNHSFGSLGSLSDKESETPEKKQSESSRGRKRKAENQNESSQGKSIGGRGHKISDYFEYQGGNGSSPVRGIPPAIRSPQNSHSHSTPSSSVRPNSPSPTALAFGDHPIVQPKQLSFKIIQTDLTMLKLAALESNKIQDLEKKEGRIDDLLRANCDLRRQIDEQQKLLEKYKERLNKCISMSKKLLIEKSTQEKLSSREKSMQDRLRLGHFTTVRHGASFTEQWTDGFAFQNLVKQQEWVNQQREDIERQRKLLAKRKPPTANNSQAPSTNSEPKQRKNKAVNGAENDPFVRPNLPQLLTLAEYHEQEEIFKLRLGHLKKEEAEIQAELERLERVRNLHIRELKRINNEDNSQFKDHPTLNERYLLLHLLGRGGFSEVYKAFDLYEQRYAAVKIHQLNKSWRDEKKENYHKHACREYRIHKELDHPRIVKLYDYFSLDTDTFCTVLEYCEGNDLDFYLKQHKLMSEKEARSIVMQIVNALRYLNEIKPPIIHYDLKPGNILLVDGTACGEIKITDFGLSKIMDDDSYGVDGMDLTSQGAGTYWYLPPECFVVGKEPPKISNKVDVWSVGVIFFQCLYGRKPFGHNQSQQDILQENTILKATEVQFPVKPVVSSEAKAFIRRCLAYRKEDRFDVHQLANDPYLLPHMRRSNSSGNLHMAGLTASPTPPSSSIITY

[4] = biological target: Tyrosine-protein kinase FRK (Homo sapiens) (UniProt P42685); assay: Selectivity interaction (KinomeScan (DiscoverX)) EUB0001079a FRK; settings: at 1 µM
Sequence of Tyrosine-protein kinase FRK (Homo sapiens) (P42685 whole entry): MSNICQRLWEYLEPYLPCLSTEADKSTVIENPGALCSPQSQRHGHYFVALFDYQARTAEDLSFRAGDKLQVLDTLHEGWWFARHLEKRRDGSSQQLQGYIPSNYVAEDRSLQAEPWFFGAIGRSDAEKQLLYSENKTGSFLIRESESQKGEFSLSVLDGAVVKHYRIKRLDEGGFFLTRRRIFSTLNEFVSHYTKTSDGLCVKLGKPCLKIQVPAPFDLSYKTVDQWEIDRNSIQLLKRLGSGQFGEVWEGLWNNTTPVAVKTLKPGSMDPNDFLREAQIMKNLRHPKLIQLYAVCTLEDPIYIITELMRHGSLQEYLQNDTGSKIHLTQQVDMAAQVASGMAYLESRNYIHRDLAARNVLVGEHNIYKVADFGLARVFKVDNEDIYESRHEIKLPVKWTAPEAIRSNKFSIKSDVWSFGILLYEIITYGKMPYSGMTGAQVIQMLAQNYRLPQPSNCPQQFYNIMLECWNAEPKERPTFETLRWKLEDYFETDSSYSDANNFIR

[5] = biological target: Serine/threonine-protein kinase WNK3 (Homo sapiens) (UniProt Q9BYP7); assay: Selectivity interaction (KinomeScan (DiscoverX)) EUB0000607a WNK3; settings: at 10 µM
Sequence of Serine/threonine-protein kinase WNK3 (Homo sapiens) (Q9BYP7 whole entry): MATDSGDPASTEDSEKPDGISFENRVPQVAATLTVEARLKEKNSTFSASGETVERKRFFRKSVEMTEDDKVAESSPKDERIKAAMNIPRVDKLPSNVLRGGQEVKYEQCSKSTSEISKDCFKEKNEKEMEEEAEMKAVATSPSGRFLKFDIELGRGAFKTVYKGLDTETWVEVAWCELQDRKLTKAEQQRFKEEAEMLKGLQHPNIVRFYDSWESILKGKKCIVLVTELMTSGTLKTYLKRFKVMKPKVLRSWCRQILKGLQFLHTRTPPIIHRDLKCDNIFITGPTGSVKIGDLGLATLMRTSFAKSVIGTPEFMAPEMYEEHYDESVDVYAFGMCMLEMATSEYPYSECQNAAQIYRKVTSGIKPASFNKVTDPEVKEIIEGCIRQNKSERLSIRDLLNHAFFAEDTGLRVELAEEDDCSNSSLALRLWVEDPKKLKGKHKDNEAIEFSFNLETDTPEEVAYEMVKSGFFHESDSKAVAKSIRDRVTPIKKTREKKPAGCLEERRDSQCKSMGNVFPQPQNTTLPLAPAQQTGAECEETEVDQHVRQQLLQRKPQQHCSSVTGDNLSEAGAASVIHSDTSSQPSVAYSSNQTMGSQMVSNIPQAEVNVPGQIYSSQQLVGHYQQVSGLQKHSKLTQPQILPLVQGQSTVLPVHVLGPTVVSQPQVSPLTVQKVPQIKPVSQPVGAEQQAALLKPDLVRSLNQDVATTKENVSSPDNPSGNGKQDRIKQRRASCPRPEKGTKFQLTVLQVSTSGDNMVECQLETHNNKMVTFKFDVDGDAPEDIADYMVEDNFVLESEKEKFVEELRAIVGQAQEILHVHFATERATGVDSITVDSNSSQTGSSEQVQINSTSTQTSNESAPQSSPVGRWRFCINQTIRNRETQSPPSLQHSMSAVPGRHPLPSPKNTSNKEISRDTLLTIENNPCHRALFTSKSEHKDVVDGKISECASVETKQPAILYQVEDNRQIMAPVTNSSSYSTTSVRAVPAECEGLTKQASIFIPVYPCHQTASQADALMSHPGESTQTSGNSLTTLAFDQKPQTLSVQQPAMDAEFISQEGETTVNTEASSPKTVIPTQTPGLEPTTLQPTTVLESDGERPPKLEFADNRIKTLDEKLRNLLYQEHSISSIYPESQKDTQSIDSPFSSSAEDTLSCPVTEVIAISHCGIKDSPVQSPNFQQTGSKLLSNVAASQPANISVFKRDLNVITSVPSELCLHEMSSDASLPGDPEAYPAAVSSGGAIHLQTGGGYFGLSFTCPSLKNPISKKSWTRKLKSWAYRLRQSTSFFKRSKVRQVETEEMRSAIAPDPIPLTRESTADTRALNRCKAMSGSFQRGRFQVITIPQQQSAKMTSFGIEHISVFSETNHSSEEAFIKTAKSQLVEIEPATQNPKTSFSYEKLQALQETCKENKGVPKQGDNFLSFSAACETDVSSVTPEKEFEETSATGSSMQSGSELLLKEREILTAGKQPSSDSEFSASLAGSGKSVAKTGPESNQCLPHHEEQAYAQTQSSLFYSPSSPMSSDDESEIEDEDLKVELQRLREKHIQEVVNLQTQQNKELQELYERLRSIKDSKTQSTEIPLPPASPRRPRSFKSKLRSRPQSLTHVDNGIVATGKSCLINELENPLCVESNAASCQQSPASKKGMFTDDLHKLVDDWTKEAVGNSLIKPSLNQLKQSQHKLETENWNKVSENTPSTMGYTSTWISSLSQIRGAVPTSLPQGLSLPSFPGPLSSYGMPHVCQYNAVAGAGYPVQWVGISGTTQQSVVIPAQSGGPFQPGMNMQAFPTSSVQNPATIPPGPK

[6] = biological target: T3, Dual specificity tyrosine-phosphorylation-regulated kinase 2 (Homo sapiens) (UniProt Q92630); assay: Selectivity interaction (KinomeScan (DiscoverX)) EUB0000666a DYRK2; settings: at 10 µM
T3 sequence (whole entry): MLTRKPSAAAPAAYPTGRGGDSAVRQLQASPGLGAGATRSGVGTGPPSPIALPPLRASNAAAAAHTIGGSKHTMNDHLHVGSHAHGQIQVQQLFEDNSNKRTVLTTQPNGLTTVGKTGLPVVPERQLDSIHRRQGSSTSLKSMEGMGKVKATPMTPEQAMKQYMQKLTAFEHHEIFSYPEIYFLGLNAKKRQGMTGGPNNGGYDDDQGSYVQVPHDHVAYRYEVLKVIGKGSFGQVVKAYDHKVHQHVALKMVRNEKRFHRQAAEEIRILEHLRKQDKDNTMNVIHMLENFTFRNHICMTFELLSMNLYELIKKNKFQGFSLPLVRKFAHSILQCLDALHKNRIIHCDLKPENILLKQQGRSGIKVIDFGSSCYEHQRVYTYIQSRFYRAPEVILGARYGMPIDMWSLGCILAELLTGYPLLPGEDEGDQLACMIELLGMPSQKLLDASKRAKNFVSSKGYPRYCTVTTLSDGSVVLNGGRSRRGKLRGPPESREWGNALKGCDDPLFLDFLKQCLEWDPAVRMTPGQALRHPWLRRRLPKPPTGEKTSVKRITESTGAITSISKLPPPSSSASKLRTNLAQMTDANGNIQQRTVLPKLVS

Sequence of Phosphatidylinositol 4-phosphate 5-kinase type-1 alpha (Homo sapiens) (Q99755 whole entry): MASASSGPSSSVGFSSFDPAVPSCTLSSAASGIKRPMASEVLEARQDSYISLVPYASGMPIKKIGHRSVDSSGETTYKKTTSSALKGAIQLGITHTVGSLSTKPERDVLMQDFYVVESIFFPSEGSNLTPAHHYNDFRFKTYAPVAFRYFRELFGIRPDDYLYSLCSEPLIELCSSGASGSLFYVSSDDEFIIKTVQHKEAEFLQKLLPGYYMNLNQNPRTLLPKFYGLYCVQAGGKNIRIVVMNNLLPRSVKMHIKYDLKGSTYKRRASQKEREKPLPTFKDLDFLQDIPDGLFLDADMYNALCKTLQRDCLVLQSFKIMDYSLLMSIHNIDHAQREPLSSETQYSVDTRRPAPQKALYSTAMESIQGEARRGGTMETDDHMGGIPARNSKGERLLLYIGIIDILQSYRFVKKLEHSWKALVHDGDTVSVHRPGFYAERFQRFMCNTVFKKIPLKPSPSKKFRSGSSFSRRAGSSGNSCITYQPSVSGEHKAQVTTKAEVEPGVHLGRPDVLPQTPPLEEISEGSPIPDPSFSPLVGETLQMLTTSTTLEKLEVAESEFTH

How did the % of control [1] turn out when `CN(C)C/C=C/C(=O)Nc1ccc(C(=O)N2CCCC(Nc3ncc(Cl)c(-c4c[nH]c5ccccc45)n3)C2)cc1` (stereo unspecified) was run?
The % of control was 78%.

And the % of control [2]?
The % of control was 96%.

With `Cc1cc(F)c(C(=O)Nc2cccc(-c3nncn3C(C)C)n2)cc1-n1cnc(C2CC2)c1` as the compound, how does the % of control [3] read?
The % of control was 88%.

`Nc1cnc(N2CCc3cc(S(=O)(=O)Nc4c(F)cc(Cl)cc4F)cc(N4CCCC4=O)c32)nc1` [TP-020n] was tested. Which % of control [4] did it give?
The % of control was 62%.

How did the % of control [5] turn out when `CNC(=O)Nc1ccc(-c2nc(N3CC4CCC(C3)O4)c3cnn(C4CCC5(CC4)OCCO5)c3n2)cc1` was run?
The % of control was 100%.

How did the % of control [6] turn out when `O=C(NOC[C@H](O)CO)c1ccc(F)c(F)c1Nc1ccc(I)cc1F` was run?
The % of control was 95%.
